5 compounds from ChEMBL document CHEMBL3046543, “Larvicidal and adulticidal activity of alkylphthalide derivatives from rhizome of Cnidium officinale against Drosophila melanogaster” (J Agric Food Chem, 2005) can be followed below.

What all share (assay type): functional
The subject of assay [1] is Drosophila melanogaster. As to the kind of experiment: Relative toxicity, LD50 for rotenone Drosophila melanogaster adulticidal activity to LD50 for compound Drosophila melanogaster adulticidal activity.
For assay [2], the system named is Drosophila melanogaster. Kind of assay: Insecticidal activity against 5 to 7 days old adult Drosophila melanogaster assessed as mortality measured as inability to move compound treated in diet at 25 degC and >90% RH treated for 8 days.
Assay [3] has as its system Drosophila melanogaster. Kind of assay: Relative toxicity, LC50 for rotenone Drosophila melanogaster larvicidal activity to LC50 for compound Drosophila melanogaster larvicidal activity.
Assay [4] has as its system Drosophila melanogaster. As to the kind of experiment: Insecticidal activity against Drosophila melanogaster larvae assessed as mortality compound treated in diet at 25 degC and >90% RH treated for 8 days. The note with it: feed or water, 192 h.

A value given as a limit tells only on which side of the number the result lay.

For the compound `CCCC[C@@H]1OC(=O)c2ccccc21` [(3S)-BUTYLPHTHALIDE], the Ratio in the assay with Drosophila melanogaster [1] is recorded as 0.62. In the assay on Drosophila melanogaster [2], the LD50 was 5.93 µg. Also, in the assay with Drosophila melanogaster [3], the RatioLC50 came out at 0.004. Moreover, the LC50 (commonly the concentration lethal to half of the exposed cells or organisms) in the assay with Drosophila melanogaster [4] was 4.99 mM.

With `CCC/C=C1\OC(=O)C2=C1CCC=C2` [LIGUSTILIDE], in the assay on Drosophila melanogaster [1], the Ratio was less than 0.07. For the same compound, the LD50 with Drosophila melanogaster [2] was greater than 50 µg. This compound had a RatioLC50 in the assay on Drosophila melanogaster [3] of 0.009. Besides, the LC50 in the assay on Drosophila melanogaster [4] came out at 2.54 mM.

Take `C=C(C)[C@H]1Cc2c(ccc3c2O[C@@H]2COc4cc(OC)c(OC)cc4[C@@H]2C3=O)O1` [ROTENONE]: in the assay on Drosophila melanogaster [1], the Ratio was 1. Further, the LD50 in the assay on Drosophila melanogaster [2] turned out to be 3.68 µg. In the assay on Drosophila melanogaster [3], this compound yielded a RatioLC50 of 1. The LC50 with Drosophila melanogaster [4] came to 0.02 mM.

Regarding `CCCC[C@@H]1OC(=O)[C@@H]2C=CCC[C@H]12` [CNIDILIDE], the Ratio in the assay on Drosophila melanogaster [1] worked out at 0.4. Moreover, in the assay on Drosophila melanogaster [2], the LD50 was determined as 9.17 µg. Further, the RatioLC50 in the assay with Drosophila melanogaster [3] is less than 0.001. In the assay with Drosophila melanogaster [4], the median lethal concentration (LC50) was greater than 16 mM.

For the compound `CCCC[C@@H]1OC(=O)C2=CCCC[C@H]21` [NEOCNIDILIDE], in the assay on Drosophila melanogaster [1], the Ratio is recorded as 0.34. Also, in the assay on Drosophila melanogaster [2], the LD50 was determined as 10.82 µg. The RatioLC50 in the assay with Drosophila melanogaster [3] came out at 0.002. For the same compound, in the assay on Drosophila melanogaster [4], the LC50 came to 9.9 mM.
